Assay results taken from PMC5620575 (Pharmaceutics, 2017).
Values after ≈ are worked out from the molar mass of the structure shown. Where two headings read alike, the source gives them in different places.

Legend:
[1] = tissue to plasma distribution; format: in vivo; conditions: New Zealand White, rabbit, 2 x 10 mg/kg IV, 2 h after second dose, n = 3
Method: Three groups of White New Zealand rabbits (n = 3, each) weighing 3.0–3.5 kg were used. Each group received 10 mg/kg of one compounds administered intravenously over a period of 3–5 min, followed one hour later by a second IV dose of 10 mg/kg. Two h later, the rabbits were euthanized with an IV dose of pentobarbital. Plasma and tissue samples, including kidney, liver, lungs, spleen, heart, muscles, and vetrus fluid were collected immediately, and stored at −80 °C until analysis.
Plasma ultra-filtrate samples were analyzed using the same procedures for the plasma. Tissue homogenates were prepared by adding 1 gm of the tissues samples to 4 g of phosphate buffer, pH 7.4 (1:4, w/w), then homogenization using Tissue-Tearor, Bio-Spec Products Inc. (Bartlesville, OK, USA). Aliquots of 200 μL of tissue homogenate samples were analyzed using the procedures for the plasma and the concentrations were determined using plasma calibrators as described and validated previously for Lzd and PH027 [18].
The tissue to plasma concentration ratios for the three compounds were calculated from the ratio of the tissue homogenate concentrations corrected for the dilution during the homoginization process and the plasma concentrations. Generally, the three compounds have very good distribution to all tissues. The tissue to plasma distribution ratios for the novel compounds were more than one in kidney, lung, liver, heart, muscles and spleen, and the ratios were more than those for Lzd in all investigated tissues. Table 3, summerizes the tissue to plasma distribution ratios for the three compounds in different tissues.

Escherichia coli = system: Escherichia coli; parameters: method as in PMID 12467705, PMID 15911326, PMID 17140706, PMID 19376613, PMID 23811087; conditions: cited from earlier work
Moraxella catarrhalis = system: Moraxella catarrhalis; parameters: method as in PMID 12467705, PMID 15911326, PMID 17140706, PMID 19376613, PMID 23811087; conditions: cited from earlier work
[2] = solubility observed on preparing the oral dose in normal saline; format: physicochemical; conditions: 20 mg/kg oral dose in 20 mL of warm normal saline
Method: Three groups of rabbits (n = 4, each) received 20 mg/kg oral dose of each compound. […] Accurately weighted amounts of each compound were dissolved/suspended in 20 mL of warm normal saline using an ultrasound water bath. […] The solutions/suspensions of the three compounds were administered orally to the rabbits using a pediatric feeding tubes. After oral administration of each compound, serial blood samples were obtained through the IV catheter, over a period of 10 h after administration. Plasma was obtained from blood by centrifugation, and samples were kept at −80 °C until analysis.

Heamophilus influenzae = system: Heamophilus influenzae; parameters: method as in PMID 12467705, PMID 15911326, PMID 17140706, PMID 19376613, PMID 23811087; conditions: unit printed only for the neighbouring MICs of the sentence; cited from earlier work
[3] = brain, read-out: Tissue to Plasma Concentration Ratio, Brain
[4] = eye (vitreous fluid), read-out: Tissue to Plasma Concentration Ratio, Eye (vetrus fluid)
[5] = heart, read-out: Tissue to Plasma Concentration Ratio, Heart
[6] = kidney, read-out: Tissue to Plasma Concentration Ratio, Kidney
[7] = liver, read-out: Tissue to Plasma Concentration Ratio, Liver
[8] = lung, read-out: Tissue to Plasma Concentration Ratio, Lung
[9] = muscle, read-out: Tissue to Plasma Concentration Ratio, Muscles
[10] = spleen, read-out: Tissue to Plasma Concentration Ratio, Spleen

SMILES	Kp at 2 h [1, 3]	Kp at 2 h [1, 4]	Kp at 2 h [1, 5]	Kp at 2 h [1, 6]	Kp at 2 h [1, 7]	Kp at 2 h [1, 8]	Kp at 2 h [1, 9]	Kp at 2 h [1, 10]	MIC (Escherichia coli)	MIC (Moraxella catarrhalis)	solubility (observed) [2]	MIC (Heamophilus influenzae)
O=C1O[C@@H](Cn2ccnn2)CN1c1ccc(N2CCOCC2)c(F)c1 [PH027]	0.223 ± 0.016	0.989 ± 0.1	1.36 ± 0.087	2.78 ± 0.089	2.91 ± 0.168	1.59 ± 0.041	1.25 ± 0.059	1.51 ± 0.026	> 64 µg/mL	> 16.0 µg/mL		
O=C1O[C@@H](Cn2ccnn2)CN1c1ccc(N2CCN(C(=O)C(F)(F)F)CC2)c(F)c1 [PH051]	0.179 ± 0.07	0.81 ± 0.11	1.56 ± 0.22	2.22 ± 0.063	1.7 ± 0.19	1.5 ± 0.16	1.58 ± 0.21	1.41 ± 0.27	> 64 µg/mL	8.0 µg/mL (≈ 18.1 µM)	least water-soluble of the three compounds	64 µg/mL (≈ 145 µM)
